Values of other authors in patent US20230219928A1, “PREPARATION METHOD FOR AROMATIC ETHER COMPOUND” (Jiangsu Yahong Meditech Co., Ltd., priority 2020, published 2023).

Assays:
[1] = human, phase II clinical trial conducted by Jiangsu Yahong Meditech in China
[2] = background statement

biological half-life [1]: 1.22-1.44 hours | water solubility [2]: very low
SMILES: O=[N+]([O-])c1ccc(O)c2ncccc12 [nitroxoline]
